Laboratory results taken from the supplement of paper PMC10307832.

Columns and labels:
Assay in all cases: relative viability (nuclei count vs DMSO), 5 days (fraction); higher = more cells survive
AZ3146 + Pemetrexed = compound: CN1CCC(CC1)OC2=CC(=C(C=C2)NC3=NC=C4C(=N3)N(C(=O)N4C)C5CCCC5)OC [AZ3146] + Nc1nc2[nH]cc(CCc3ccc(C(=O)N[C@@H](CCC(=O)O)C(=O)O)cc3)c2c(=O)[nH]1 [Pemetrexed] (partner 0.2 µM)
In short: (§1)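 Lung cancer cell lines in 1536-well plates were dosed by pin tool the day after seeding, either with one drug alone or with a fixed anchor-drug dose plus five library-drug doses (not always all listed) in √10 steps. After 5 days, cells were fixed and their nuclei stained in one step (final 0.05% Triton X-100, 1% formaldehyde, 1 ug/ml Hoechst), then counted on 4× images. Relative viability is the nuclei count in treated wells divided by that in vehicle wells. Values are medians of duplicate plates.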

GSK-J4 + OSI-027 = compound: CCOC(=O)CCNc1cc(N2CCc3ccccc3CC2)nc(-c2ccccn2)n1 [GSK-J4] + COc1cccc2cc(-c3nc([C@H]4CC[C@H](C(=O)O)CC4)n4ncnc(N)c34)[nH]c12 [OSI-027] (partner 0.5 µM)
In short: as §1

AZ3146 = compound: CN1CCC(CC1)OC2=CC(=C(C=C2)NC3=NC=C4C(=N3)N(C(=O)N4C)C5CCCC5)OC [AZ3146]
In short: (§2)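 Five library-drug doses, separated by factors of √10, were pinned into 1536-well plates holding lung cancer cell lines after an overnight stay at 37 °C. Cells were fixed, permeabilised and Hoechst-stained in one step after 5 days without medium change, then imaged at 4×. Viability compares treated-well with vehicle-well nuclei, counted in MetaXpress, as a median across plates. Passing plates had control CV below 25% and at least one doubling.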

GSK-J4 = compound: CCOC(=O)CCNc1cc(N2CCc3ccccc3CC2)nc(-c2ccccn2)n1 [GSK-J4]
In short: as §2

| Cell Line | relative viability (AZ3146 + Pemetrexed; first compound 0.08 µM) | relative viability (AZ3146 + Pemetrexed; first compound 0.253 µM) | relative viability (AZ3146 + Pemetrexed; first compound 0.8 µM) | relative viability (AZ3146 + Pemetrexed; first compound 2.53 µM) | relative viability (AZ3146 + Pemetrexed; first compound 8 µM) | relative viability (GSK-J4 + OSI-027; first compound 0.5 µM) | relative viability (GSK-J4 + OSI-027; first compound 1.581 µM) | relative viability (GSK-J4 + OSI-027; first compound 5 µM) | relative viability (GSK-J4 + OSI-027; first compound 15.81 µM) | relative viability (GSK-J4 + OSI-027; first compound 50 µM) | relative viability (AZ3146; 0.08 µM) | relative viability (AZ3146; 0.253 µM) | relative viability (AZ3146; 0.8 µM) | relative viability (AZ3146; 2.53 µM) | relative viability (AZ3146; 8 µM) | relative viability (GSK-J4; 0.5 µM) | relative viability (GSK-J4; 1.581 µM) | relative viability (GSK-J4; 5 µM) | relative viability (GSK-J4; 15.81 µM) | relative viability (GSK-J4; 50 µM) |
| --- | --- | --- | --- | --- | --- | --- | --- | --- | --- | --- | --- | --- | --- | --- | --- | --- | --- | --- | --- | --- |
| PC-14 | 0.138 | 0.131 | 0.142 | 0.119 | 0.0971 | 0.844 | 0.759 | 0.777 | 0.778 | 0.694 | 0.958 | 0.967 | 1.02 | 1.04 | 0.784 | 1.02 | 0.916 | 0.769 | 0.985 | 1.01 |
| RERF-LC-KJ | 0.43 | 0.485 | 0.461 | 0.473 | 0.488 | 0.582 | 0.475 | 0.485 | 0.473 | 0.382 | 0.944 | 1.01 | 0.974 | 1.05 | 0.716 | 0.887 | 0.853 | 0.943 | 0.908 | 0.826 |
| SK-LU-1 | 0.921 | 1.03 | 0.961 | 1.06 | 0.879 | 0.339 | 0.318 | 0.258 | 0.292 | 0.218 | 0.944 | 1.07 | 1 | 1.08 | 0.936 | 0.947 | 0.865 | 0.826 | 0.838 | 0.704 |
| SK-MES-1 | 1.02 | 0.976 | 0.965 | 0.997 | 0.792 | 0.573 | 0.542 | 0.535 | 0.436 | 0.327 | 1 | 0.985 | 1.07 | 0.991 | 0.95 | 0.965 | 0.937 | 0.932 | 0.928 | 0.783 |
| SW 900 | 0.459 |  | 0.445 | 0.492 | 0.429 | 0.543 | 0.602 | 0.504 | 0.52 | 0.331 | 0.77 | 0.669 | 0.751 | 1.01 | 0.686 | 0.803 | 0.794 | 0.842 | 0.863 | 0.64 |
| SW 1573 | 0.815 | 0.844 | 0.861 | 0.82 | 0.228 | 0.657 | 0.423 | 0.507 | 0.519 | 0.211 | 0.994 | 1.04 | 0.991 | 0.959 | 0.68 | 0.926 | 0.96 | 0.851 | 0.949 | 0.756 |
